Measurements reported in patent publication US20190192697A1, “CHEMICAL PROBES OF LYSYL OXIDASK-LIKE 2 AND USES THEREOF” (PHARMAKEA, INC., priority 2016, published 2019).
pIC50: −log10 of the molar value. Where a name gives a salt, the structure may show the parent alone.

Tests used:
LOXL2 [1] = target: T1, LOXL2 (Homo sapiens, UniProt Q9Y4K0); assay: Human LOXL2 amine oxidase activity assay (Amplex Red); format: biochemical; parameters: expressed in transfected cells; host or cells: CHO cells stably expressing human LOXL2; 10-20x concentrated conditioned media; conditions: concentrated conditioned media from CHO cells expressing human LOXL2; 2 h at 37° C. pre-incubation
T1 sequence (Q9Y4K0 26-774): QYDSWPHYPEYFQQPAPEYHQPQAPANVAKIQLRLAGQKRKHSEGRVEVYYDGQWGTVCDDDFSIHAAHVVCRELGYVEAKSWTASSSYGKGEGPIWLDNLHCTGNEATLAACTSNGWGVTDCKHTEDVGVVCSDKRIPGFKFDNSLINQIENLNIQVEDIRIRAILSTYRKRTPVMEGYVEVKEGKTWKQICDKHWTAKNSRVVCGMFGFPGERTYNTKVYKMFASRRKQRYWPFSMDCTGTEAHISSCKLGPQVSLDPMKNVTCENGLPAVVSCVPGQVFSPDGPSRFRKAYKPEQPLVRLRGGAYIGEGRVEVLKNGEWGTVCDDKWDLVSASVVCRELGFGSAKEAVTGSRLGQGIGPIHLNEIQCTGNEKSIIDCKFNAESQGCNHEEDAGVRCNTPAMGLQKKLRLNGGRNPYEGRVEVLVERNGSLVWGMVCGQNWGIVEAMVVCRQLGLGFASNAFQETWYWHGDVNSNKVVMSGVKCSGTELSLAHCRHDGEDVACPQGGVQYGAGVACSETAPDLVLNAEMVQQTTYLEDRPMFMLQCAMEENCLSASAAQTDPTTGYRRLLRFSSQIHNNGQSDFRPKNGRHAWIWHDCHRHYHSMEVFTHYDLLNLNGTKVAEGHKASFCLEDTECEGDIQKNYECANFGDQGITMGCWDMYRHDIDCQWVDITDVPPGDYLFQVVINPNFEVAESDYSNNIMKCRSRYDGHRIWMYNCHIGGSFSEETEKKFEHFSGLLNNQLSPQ
Description: LOXL2 amine oxidase activity is evaluated by measuring Amplex Red fluorescence using 10-20× concentrated conditioned media from CHO cells stably expressing human LOXL2. To assay for amine oxidase activity, 10 μL of the concentrated conditioned media is incubated with 2 μL of test compound in DMSO and 73 μL Assay Buffer (50 mM Borate Buffer, pH8) for 2 h at 37° C. After the 2 h incubation, 5 μL of 10 mM 1,5-diaminopentane (DAP) diluted in Assay Buffer and 10 μL of Amplex Red Mix (8.5 μL Assay Buffer+0.5 μL of 10 mM Amplex Red+1 μL of 500 U/mL Horseradish Peroxidase) are added and the plate mixed and immediately placed on the FlexStaion for fluorescence measurements. Fluorescence is read in kinetic mode every 2 min for 1 hour at excitation=544 nm and emission=590 nm. The amine oxidase activity is calculated from the slope of the linear portion of the curve.

LOXL2 [2] = target: T1, LOXL2; assay: LOXL2 target engagement in plasma of healthy volunteers after single oral dose (Western-based FG bead assay); format: in vivo; parameters: from tissue; host or cells: human plasma (donors / healthy volunteers)
Description: Beads are resuspended to 10 mg/mL in Wash Buffer (20 mM Tris pH 8, 0.2% NP-40, 120 mM NaCl) and 1 mg beads (100 μL) are added to 1-10 mL of plasma, serum or other biological fluid containing LOXL2 and incubated at 37° C. for 0.5-2 hours with rotation. Beads are separated from plasma or other matrix using magnetic separation (for example, DynaMag™-15 Magnet) for 10 minutes at room temperature then the plasma/matrix carefully removed. The beads are resuspended in 1 mL Wash Buffer, vortexed and centrifuged at 4500×g for 5 minutes at room temperature to move all beads to the bottom of the tube. Beads are transferred to a 1.5 mL microfuge tube and washed 3 times with Wash Buffer using magnetic separation (for example, DynaMag™-2 Magnet). After the final wash, beads are resuspended in 40 μL of 1× BOLT® LDS Sample Buffer (Thermo Fisher, Waltham, Mass.) containing 1× BOLT® Sample Reducing Agent (Thermo Fisher, Waltham, Mass.) and incubated for 10 minutes at 90° C. Samples are centrifuged at 10,000×g for 1 minute then magnetically separated using a DynaMag™-2 Magnet for 2 minutes. 40 μL of each supernatant is loaded into one well of a 10 well 4-12% Bis-Tris Plus gel (Thermo Fisher, Waltham, Mass.) and the gels run for 45 minutes at 164 volts in 1×MES SDS Running Buffer (Thermo Fisher, Waltham, Mass.). Gels are transferred to nitrocellulose using iBlot (Thermo Fisher, Waltham, Mass.) according to the manufacturer's recommendation. Blots are incubated in Bullet Blocking One (Nacalai USA, Inc) for 5 minutes at room temperature then incubated overnight at 4° C. with an anti-LOXL2 antibody (for example, R&D Systems goat polyclonal) diluted in Signal Enhancer Solution 1 (Nacalai USA, Inc). Blots are rinsed quickly twice in PBS/0.1% tween-20 then washed 3 times for 10 minutes each in the PBS/tween solution. A secondary infrared dye (IRdye)-conjugated secondary antibody (LI-COR Biosciences, Lincoln, Neb.) diluted in Signal Enhancer 2 (Nacalai USA, Inc) is added to the blot and incubated for 45 minutes-1 hour at room temperature in the dark. Blots are washed as above with PBS/tween then rinsed in PBS before imaging with a LI-COR Odyssey (LI-COR, Lincoln, Neb.).
Healthy human subjects (male and female) were dosed with compound 2 in solution. […] Placebo data is the average of all the placebo subjects in the single dose study (n=10).

pIC50 (LOXL2 [1]): > 6.52
Ave plasma % TE (LOXL2 [2]; 150 mg single oral dose, 2 hour post-dose): 62%
average decrease of free/unbound LOXL2 in plasma (LOXL2 [2]; 150 mg single oral dose, 2 hours post-dosing, healthy subjects): approximately 60%
Ave plasma % TE (LOXL2 [2]; 150 mg single oral dose, 24 hour post-dose): 20%
Ave plasma % TE (LOXL2 [2]; 450 mg single oral dose, 2 hour post-dose): 78%
Ave plasma % TE (LOXL2 [2]; 450 mg single oral dose, 24 hour post-dose): −13%
Ave plasma % TE (LOXL2 [2]; 1000 mg single oral dose, 2 hour post-dose): 92%
Ave plasma % TE (LOXL2 [2]; 1000 mg single oral dose, 24 hour post-dose): 1%
pIC50 (LOXL2 [2]; plasma samples of healthy volunteers dosed with compound 1-13a, read-out: IC50 of % target engagement versus plasma concentration): 6.04
SMILES: NCc1cc(Oc2cccc(C(=O)N3C[C@@H](O)[C@H](F)C3)c2)nc(C(F)(F)F)c1 [Compound 1-13a, (R,R)-trans-(3-((4-(Aminomethyl)-6-(trifluoromethyl)pyridin-2-yl)oxy)phenyl)(3-fluoro-4-hydroxypyrrolidin-1-yl)methanone hydrochloride]
